Ten compounds from ChEMBL document CHEMBL3046672, “Synthesis and bioevaluation of Schiff and Mannich bases of isatin derivatives with 4-amino-5-benzyl-2,4-dihydro-3H-1,2,4-triazole-3-thione” (2012) can be followed below.

Common to all, as to format: functional
Conditions in all cases: read-out: DIZ

In test [1] the test system is Escherichia coli. Nature of the test: Antibacterial activity against Escherichia coli at 200 ug/ml.
The test system of test [2] is Pseudomonas aeruginosa. As to the kind of experiment: Antibacterial activity against Pseudomonas aeruginosa at 200 ug/ml.
The subject of test [3] is Staphylococcus aureus. Nature of the test: Antibacterial activity against Staphylococcus aureus at 200 ug/ml.
Test [4] concerns Bacillus subtilis. As to the kind of experiment: Antibacterial activity against Bacillus subtilis at 100 ug/ml.
In test [5] the test system is Aspergillus niger. As to the kind of experiment: Antifungal activity against Aspergillus niger at 100 ug/ml.
For test [6], the system named is Bacillus subtilis. Nature of the test: Antibacterial activity against Bacillus subtilis at 50 ug/ml.
Test [7] concerns Pseudomonas aeruginosa. As to the kind of experiment: Antibacterial activity against Pseudomonas aeruginosa at 50 ug/ml.
Test [8] has as its system Escherichia coli. Nature of the test: Antibacterial activity against Escherichia coli at 50 ug/ml.
Test [9] deals with Candida albicans. As to the kind of experiment: Antifungal activity against Candida albicans at 100 ug/ml.
The test system of test [10] is Escherichia coli. Nature of the test: Antibacterial activity against Escherichia coli at 100 ug/ml.
Test [11] concerns Candida albicans. As to the kind of experiment: Antifungal activity against Candida albicans at 200 ug/ml.
Test [12] relates to Aspergillus niger. As to the kind of experiment: Antifungal activity against Aspergillus niger at 200 ug/ml.
Test [13] concerns Pseudomonas aeruginosa. Nature of the test: Antibacterial activity against Pseudomonas aeruginosa at 100 ug/ml.
Test [14] has as its system Staphylococcus aureus. Nature of the test: Antibacterial activity against Staphylococcus aureus at 100 ug/ml.
Test [15] has as its system Bacillus subtilis. As to the kind of experiment: Antibacterial activity against Bacillus subtilis at 200 ug/ml.
Test [16] relates to Staphylococcus aureus. As to the kind of experiment: Antibacterial activity against Staphylococcus aureus at 50 ug/ml.

For the compound `O=C1Nc2ccc(Cl)cc2/C1=N/n1c(Cc2ccccc2)n[nH]c1=S`, the zone of inhibition at 200 µg/mL was found to be 27 mm with Escherichia coli [1]; 25 mm in the test with Pseudomonas aeruginosa [2]; 23 mm in the test on Staphylococcus aureus [3]; 16 mm in the test on Candida albicans [11]; 12 mm in the test with Aspergillus niger [12]; 20 mm in the test on Bacillus subtilis [15]. For the same compound, the zone of inhibition at 100 µg/mL in the test with Bacillus subtilis [4] was determined as 14 mm; with Aspergillus niger [5], 9 mm; with Candida albicans [9] it was 9 mm; in the test with Escherichia coli [10] it was 18 mm; with Pseudomonas aeruginosa [13] it was 13 mm; with Staphylococcus aureus [14], 11 mm. Further, the zone of inhibition at 50 µg/mL was found to be 9 mm in the test with Bacillus subtilis [6], 9 mm in the test on Pseudomonas aeruginosa [7] and 11 mm in the test on Escherichia coli [8].

With `CCN(CC)CN1C(=O)/C(=N\n2c(Cc3ccccc3)n[nH]c2=S)c2cc(Cl)ccc21`, the zone of inhibition at 200 µg/mL in the test with Escherichia coli [1] is 27 mm; in the test on Pseudomonas aeruginosa [2], 22 mm; with Staphylococcus aureus [3] it was 21 mm; in the test on Candida albicans [11] it was 15 mm; with Aspergillus niger [12], 12 mm; with Bacillus subtilis [15] it was 20 mm. Moreover, the zone of inhibition at 100 µg/mL with Bacillus subtilis [4] turned out to be 14 mm; in the test with Aspergillus niger [5], 9 mm; with Candida albicans [9], 9 mm; in the test on Escherichia coli [10], 17 mm; in the test with Pseudomonas aeruginosa [13] it was 16 mm; in the test with Staphylococcus aureus [14], 12 mm. Moreover, the zone of inhibition at 50 µg/mL in the test on Bacillus subtilis [6] amounted to 9 mm; with Staphylococcus aureus [16], 9 mm; in the test with Pseudomonas aeruginosa [7], 9 mm; with Escherichia coli [8], 11 mm.

On to `CCN(CC)CN1C(=O)/C(=N\n2c(Cc3ccccc3)n[nH]c2=S)c2cc(Br)ccc21`, for which the zone of inhibition at 200 µg/mL with Escherichia coli [1] was found to be 26 mm; in the test with Pseudomonas aeruginosa [2] it was 23 mm; with Staphylococcus aureus [3], 20 mm; with Candida albicans [11], 16 mm; in the test with Aspergillus niger [12] it was 13 mm; in the test with Bacillus subtilis [15] it was 20 mm. Moreover, the zone of inhibition at 100 µg/mL with Bacillus subtilis [4] was determined as 13 mm; in the test on Aspergillus niger [5], 9 mm; with Candida albicans [9], 10 mm; with Escherichia coli [10], 16 mm; in the test on Pseudomonas aeruginosa [13], 14 mm; in the test with Staphylococcus aureus [14] it was 14 mm. Moreover, the zone of inhibition at 50 µg/mL in the test with Bacillus subtilis [6] was 9 mm; in the test with Staphylococcus aureus [16] it was 9 mm; in the test with Pseudomonas aeruginosa [7], 9 mm; with Escherichia coli [8], 10 mm.

For `O=C1/C(=N\n2c(Cc3ccccc3)n[nH]c2=S)c2ccccc2N1CN1CCCCC1`, the zone of inhibition at 200 µg/mL was found to be 23 mm in the test on Escherichia coli [1]; 20 mm in the test with Pseudomonas aeruginosa [2]; 20 mm in the test with Staphylococcus aureus [3]; 16 mm in the test with Candida albicans [11]; 13 mm in the test on Aspergillus niger [12]; 20 mm with Bacillus subtilis [15]. The zone of inhibition at 100 µg/mL in the test on Bacillus subtilis [4] was 12 mm; with Aspergillus niger [5] it was 9 mm; in the test on Candida albicans [9] it was 10 mm; in the test on Escherichia coli [10], 18 mm; in the test on Pseudomonas aeruginosa [13] it was 16 mm; with Staphylococcus aureus [14], 14 mm. Moreover, the zone of inhibition at 50 µg/mL in the test on Bacillus subtilis [6] was found to be 9 mm; in the test with Staphylococcus aureus [16], 9 mm; in the test with Pseudomonas aeruginosa [7], 10 mm; in the test on Escherichia coli [8], 11 mm.

Consider `O=C1/C(=N\n2c(Cc3ccccc3)n[nH]c2=S)c2cc(Br)ccc2N1CN1CCCCC1`, for which the zone of inhibition at 200 µg/mL with Escherichia coli [1] is 25 mm; in the test on Pseudomonas aeruginosa [2], 22 mm; in the test on Staphylococcus aureus [3] it was 21 mm; in the test on Candida albicans [11], 16 mm; with Aspergillus niger [12], 15 mm; with Bacillus subtilis [15], 20 mm. The zone of inhibition at 100 µg/mL came out at 15 mm in the test with Bacillus subtilis [4]; 9 mm with Aspergillus niger [5]; 10 mm in the test on Candida albicans [9]; 16 mm with Escherichia coli [10]; 15 mm with Pseudomonas aeruginosa [13]; 14 mm in the test on Staphylococcus aureus [14]. Further, the zone of inhibition at 50 µg/mL with Bacillus subtilis [6] turned out to be 10 mm; with Staphylococcus aureus [16], 9 mm; in the test with Pseudomonas aeruginosa [7], 10 mm; with Escherichia coli [8], 10 mm.

For the compound `O=C1/C(=N\n2c(Cc3ccccc3)n[nH]c2=S)c2ccccc2N1CN1CCOCC1`, the zone of inhibition at 200 µg/mL in the test on Escherichia coli [1] was 23 mm; in the test on Pseudomonas aeruginosa [2] it was 22 mm; with Staphylococcus aureus [3], 19 mm; with Candida albicans [11], 15 mm; in the test on Aspergillus niger [12], 12 mm; with Bacillus subtilis [15], 20 mm. Further, the zone of inhibition at 100 µg/mL in the test with Bacillus subtilis [4] was 13 mm; with Aspergillus niger [5], 9 mm; with Candida albicans [9], 10 mm; in the test with Escherichia coli [10], 15 mm; in the test on Pseudomonas aeruginosa [13], 12 mm; in the test on Staphylococcus aureus [14], 15 mm. Besides, the zone of inhibition at 50 µg/mL is 9 mm with Bacillus subtilis [6], 10 mm with Staphylococcus aureus [16], 9 mm with Pseudomonas aeruginosa [7] and 9 mm in the test with Escherichia coli [8].

With `O=C1/C(=N\n2c(Cc3ccccc3)n[nH]c2=S)c2cc(Cl)ccc2N1CN1CCOCC1`, the zone of inhibition at 200 µg/mL in the test on Escherichia coli [1] was found to be 25 mm; in the test with Pseudomonas aeruginosa [2] it was 25 mm; in the test on Staphylococcus aureus [3] it was 20 mm; with Candida albicans [11], 17 mm; in the test on Aspergillus niger [12] it was 17 mm; in the test with Bacillus subtilis [15], 22 mm. Moreover, the zone of inhibition at 100 µg/mL with Bacillus subtilis [4] came out at 13 mm; in the test with Aspergillus niger [5] it was 9 mm; in the test with Candida albicans [9], 10 mm; in the test on Escherichia coli [10], 16 mm; with Pseudomonas aeruginosa [13] it was 15 mm; in the test with Staphylococcus aureus [14], 14 mm. Moreover, the zone of inhibition at 50 µg/mL was 9 mm with Bacillus subtilis [6], 9 mm in the test with Staphylococcus aureus [16], 9 mm in the test with Pseudomonas aeruginosa [7] and 11 mm in the test on Escherichia coli [8].

Turning to `O=C1/C(=N\n2c(Cc3ccccc3)n[nH]c2=S)c2cc(Br)ccc2N1CN1CCOCC1`, the zone of inhibition at 200 µg/mL in the test on Escherichia coli [1] came to 24 mm; with Pseudomonas aeruginosa [2] it was 24 mm; in the test with Staphylococcus aureus [3], 20 mm; with Candida albicans [11] it was 15 mm; with Aspergillus niger [12], 12 mm; in the test with Bacillus subtilis [15], 21 mm. In addition, the zone of inhibition at 100 µg/mL in the test on Bacillus subtilis [4] came out at 12 mm; with Aspergillus niger [5], 9 mm; with Candida albicans [9] it was 10 mm; in the test on Escherichia coli [10], 16 mm; with Pseudomonas aeruginosa [13] it was 15 mm; with Staphylococcus aureus [14] it was 13 mm. For the same compound, the zone of inhibition at 50 µg/mL in the test on Bacillus subtilis [6] amounted to 9 mm; with Staphylococcus aureus [16], 9 mm; in the test with Pseudomonas aeruginosa [7], 10 mm; in the test with Escherichia coli [8], 9 mm.

On to `O=C(O)c1cn(C2CC2)c2cc(N3CCNCC3)c(F)cc2c1=O` [CIPROFLOXACIN], for which the zone of inhibition at 200 µg/mL worked out at 30 mm in the test with Escherichia coli [1], 28 mm in the test on Pseudomonas aeruginosa [2], 26 mm in the test on Staphylococcus aureus [3] and 25 mm in the test with Bacillus subtilis [15].

As for `OC(Cn1cncn1)(Cn1cncn1)c1ccc(F)cc1F` [FLUCONAZOLE], the zone of inhibition at 200 µg/mL in the test with Candida albicans [11] turned out to be 20 mm; with Aspergillus niger [12], 18 mm.
